Patent US11661437B2, “Steroid derivative regulators, method for preparing the same, and uses thereof” (priority 2018, dated 2023)

What was measured:
GABA-A receptor = experiment: 35S-TBPS binding assay on rat cerebral cortex cell membrane; parameters: species or system Sprague-Dawley rat; settings: 2 nM 35S-TBPS, GABA added, read-out: 35S-TBPS bindng test, IC50 on inhibiting the TBPS binding activity
How it was run: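 Male Sprague-Dawley rat cortical membranes in PBS were preincubated 5 min at 25 °C with compound (8-point 3-fold series […], 1% DMSO), then with GABA ([…]). 2 nM 35S-TBPS was added for 20 h at 4 °C, followed by GF/C filtration and scintillation counting. % inhibition was normalised to DMSO and 10 μM reference controls, with IC50 from a 4-parameter fit.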

[1] = Pharmacokinetic assay in Balb/c mice (plasma and brain tissue); assay type: in vivo; settings: male, Balb/c, mouse, in vivo, po, 5 mg/kg; for AUC(0-t): Area under curve AUC0-t; for AUC(0-inf): Area under curve AUC0-∞; for half-life: Half-life t1/2; for MRT: Mean residence time MRT; for Tmax: Peak time tmax; for Cmax: Plasma concentration Cmax
Experimental: Balb/c mice were used as test animals. The pharmacokinetic behavior in mice (plasma and brain tissue) of the compounds of Example 2, Example 5, Example 7, Example 12, Example 18, Example 23, Example 26, Example 38, Example 41, Example 50, Example 51 and Example 66 orally administrated at a dose of 5 mg/kg was studied.
Each group had 24 male Balb/c mice. After an overnight fast, Balb/c mice were administrated p.o. with the test compound at an administration dose of 5 mg/kg and an administration volume of 10 mL/kg.
0.2 ml of blood was taken from the heart before administration and at 0, 0.5, 1, 2, 4, 6, 8 and 24 hours after administration. The samples were stored in EDTA-K2 tubes, and centrifuged for 6 minutes at 4° C., 6000 rpm to separate the plasma. The plasma samples were stored at −80° C. The mice were sacrificed with CO2, and the whole brain tissue was taken out, weighed, placed in a 2 mL centrifuge tube and stored at −80° C.
1) 160 μL of acetonitrile was added to 40 μL of the plasma sample for precipitation, and then the mixture was centrifuged for 5-20 minutes at 3500×g.
2) 90 μL of acetonitrile containing the internal standard (100 ng/mL) was added to 30 μL of the plasma and brain homogenate samples for precipitation, and then the mixture was centrifuged for 8 minutes at 13000 rpm.
3) 70 μL of the treated supernatant was taken and added to 70 μL of water, and mixed by vortex for 10 minutes. 20 μL of the mixture was taken to analyze the concentration of the test compound by LC/MS/MS. LC/MS/MS analysis instrument: AB Sciex API 4000 Qtrap.
2.6 Liquid Chromatography Analysis • Liquid chromatography condition: Shimadzu LC-20AD pump. • Chromatographic column: Agilent ZORBAX XDB-C18 (50×2.1 mm, 3.5 μm); Mobile phase: Eluent A was 0.1% formic acid in water, and Eluent B was acetonitrile. • Flow rate: 0.4 mL/min • Elution time: 0-4.0 minutes the eluent is as follows:
The main parameters of pharmacokinetics were calculated by WinNonlin 6.1.

ICR mice = experiment: In vivo pharmacodynamic test in the forced swimming model in mice; settings: for Mean (immobility, %) / Mean (immobility, s): 10 mpk p.o.; for Mean (immobility, %): floating time percentage = 100*floating time/240 s; for Mean (immobility, s): latter four minutes of 6 min swim
Experimental: The antidepressant effect of the compound was evaluated by the forced swimming model in mice.
Male ICR mice (25-35 g) were adapted in the test environment for 3 days before the forced swimming test.
According to the test design, the mice were randomly grouped on the day before the test according to body weight, with 12 mice in each group. Before the test, the compounds of each example were administrated intragastrically according to the Tmax thereof in the brain in mice pharmacokinetic test as follows:
1) Model group (0.5% CMC-Na+1% Tween 80 solution, p.o., 10 mL/kg);
2) Compounds of Example 2, Example 5, Example 7, Example 18, Example 23, Example 26 and Example 50 (10 mg/kg, p.o., 10 mL/kg).
When being administrated, the compounds of each example were suspended in 0.5% CMC-Na-1% Tween 80 solution to the desired concentration.
0.5-1 hour after administration, ICR mice were placed in a forced swimming device (transparent glass drum (water depth 18 cm, water temperature 25-26° C.), one mouse per tank) and forced to swim for 6 minutes. The forced swimming device recorded the floating time of the ICR mice during the entire 6 minutes, and the data of the latter four minutes were used for data analysis. The mice were taken out immediately after the swimming test, wiped dry and put back in their original cages.
Note: The criterion for determining the immobility time is that the mouse stops struggling in water and floats, and there are only slight limb movements to keep the head floating on the water.
3.4 Data Analysis Floating time percentage=100*floating time/240 s.

Compound | IC50 (GABA-A receptor) | Area under curve AUC0-t [1] | Area under curve AUC0-∞ [1] | Half-life t1/2 [1] | Mean residence time MRT [1] | Plasma concentration Cmax [1] | AUC(0-t) [1] | AUC(0-inf) [1] | half-life [1] | MRT [1] | Tmax [1] | Cmax [1] | Mean (immobility, %) (ICR mice) | Mean (immobility, s) (ICR mice) | immobility time during the latter four minutes compared with that of the model group (ICR mice; 10 mg/kg p.o.)
C[C@@]1(O)CC[C@@]2(F)[C@H](CC[C@H]3[C@@H]4CC[C@H](C(=O)Cn5cc(C(F)(F)F)cn5)[C@@]4(C)CC[C@@H]32)C1 [Example 7, 1-((3R,5R,8S,9S,10R,13S,14S,17S)-10-Fluoro-3-hydroxy-3,13-dimethylhexadecahydro-1H-cyclopenta[a]phenanthren-17-yl)-2-(4-(trifluoromethyl)-1H-pyrazol-1-yl)ethan-1-one] | 12.4 nM | 5106.0 ng·h/mL | 5514.3 ng·h/mL | 1.89 h | 3.37 h | 1263.3 ng/mL | 3780 ng·h/mL | 3780 ng·h/mL | 104 min | 3.67 h | 1 h | 888 ng/mL | 58.99% | 141.58 s | –
C[C@@]1(O)CC[C@@]2(F)[C@H](CC[C@H]3[C@@H]4CC[C@H](C(=O)Cn5nc6ccc(F)cc6n5)[C@@]4(C)CC[C@@H]32)C1 [Example 18, 2-(5-Fluoro-2H-benzo[d][1,2,3]triazol-2-yl)-1-((3R,5R,8S,9S,10R,13S,14S,17S)-10-fluoro-3-hydroxy-3,13-dimethylhexadecahydro-1H-cyclopenta[a]phenanthren-17-yl)ethan-1-one] | 10 nM | 2141.1 ng·h/mL | 2186.8 ng·h/mL | 4.7 h | 6.1 h | 281.7 ng/mL | 1520 ng·h/mL | 1540 ng·h/mL | 252 min | 5.5 h | 1 h | 236 ng/mL | 61.19% | 146.86 s | –
C[C@@]1(O)CC[C@]2(F)C3CC[C@]4(C)[C@@H](C(=O)CNc5ccc(F)cc5F)CC[C@H]4[C@@H]3CC[C@@H]2C1 (stereo partly drawn) [Example 26, 2-((2,4-Difluorophenyl)amino)-1-((3R,5R,8S,10R,13S,14S,17S)-10-fluoro-3-hydroxy-3,13-dimethylhexadecahydro-1H-cyclopenta[a]phenanthren-17-yl)ethan-1-one] | 10.5 nM | 722.9 ng·h/mL | 828.4 ng·h/mL | 2.06 h | 3.84 h | 172.3 ng/mL | 767 ng·h/mL | 772 ng·h/mL | 154 min | 4.08 h | 0.5 h | 232 ng/mL | 53.46% | 128.30 s | –
C[C@@]1(O)CC[C@@]2(F)[C@H](CC[C@H]3[C@@H]4CC[C@H](C(=O)Cn5nc(C#N)cc5C#N)[C@@]4(C)CC[C@@H]32)C1 [Example 50, 1-(2-((3R,5R,8S,9S,10R,13S,14S,17S)-10-Fluoro-3-hydroxy-3,13-dimethylhexadecahydro-1H-cyclopenta[a]phenanthren-17-yl)-2-oxoethyl)-1H-pyrazole-3,5-dicarbonitrile] | 12.5 nM | – | – | 1.10 h | 2.48 h | – | – | – | 66.6 min | 2.36 h | 1 h | – | 42.11% | 101.07 s | very significantly different
